{
  "source": "patent US20220396818A1",
  "about": "“POLYNUCLEOTIDE SYNTHESIS METHOD, KIT AND SYSTEM” (Oxford Nanopore Technologies PLC, priority 2019, published 2022)",
  "tested_on": "3′-O-azidomethyl group on DNA model",
  "assay": "Deprotection of 3′-O-azidomethyl group by TCEP, monitored by extension reaction",
  "details": "0.2 μM DNA model",
  "protocol": "Deprotection step (FIG. 26a) was studied on DNA model bearing 3′-O-azidomethyl group that is introduced to DNA by incorporation of 3′-O-azidomethyl-dNTPs by Therminator IX DNA polymerase. Deprotection was carried out by tris(carboxyethyl)phosphine (TCEP) and monitored by extension reaction when mixture of all natural dNTPs is added to the solution of the purified deprotected DNA.\n• 1. 2 μl of 10× Thermopol® buffer (20 mM Tris-HCl, 10 mM (NH4)2SO4, 10 mM KCl, 2 mM MgSO4, 0.1% Triton® X-100, pH 8.8, New England BioLabs) was mixed with 12.25 μl of sterile deionized water (ELGA VEOLIA) in 1.5 ml Eppendorf tube. • 2. 1 μl of 10 μM primer (10 pmol, 1 equiv) (SEQ ID NO: 39, FIG. 26i) and 1.5 μl of either 10 μM template-A/G/T/C (15 pmol, 1.5 equiv) (SEQ ID NOS: 40 to 43, FIG. 26i) were added to the reaction mixture. • 3. 3′-O-modified-dTTP/dCTP/dATP/dGTP (2 μl of 100 μM) and MnCl2 (1 μl of 40 mM) were added. • 4. 1.5 μl of Therminator IX DNA polymerase (15 U, New England BioLabs) was then added. • 5. The reaction was incubated for 5 minutes at 37° C. • 6. 4 μL of the sample was taken out and mixed with 0.5 ul of 5 mM dNTP mix and allowed to react for 10 minutes for control reaction. • 7. 40 μL of the 500 mM TCEP in 1M TRIS buffer pH 7.4 was added to the reaction mixture and allowed to react for 10 minutes at 37° C. • 8. […]",
  "data": [
    {"molecule": "O=C(O)CCP(CCC(=O)O)CCC(=O)O", "note": "[TCEP, tris(carboxyethyl)phosphine]", "values": [
      {"measurement": "cleavage of 3′-O-azidomethyl group with high efficiency", "setting": "50 mM TCEP", "result": "not sufficient"},
      {"measurement": "efficiency of cleavage of 3′-O-azidomethyl group", "setting": "300 mM TCEP", "result": 95, "unit": "%"}
    ]}
  ]
}
